Laboratory results taken from US7399775B2, “β-amyloid protein production/secretion inhibitor” (Daiichi Pharmaceutical Co., Ltd., priority 2001, dated 2008).

melting point | Structure (SMILES)
129 °C | O=S(=O)(c1ccc(Cl)cc1)C(Cc1ccncc1)c1cc(F)ccc1F (centres unmarked) [Example 220, 4-[2-[(4-Chlorophenyl)sulfonyl]-2-(2,5-difluorophenyl)ethyl]pyridine]
121 to 122 °C | CCOC(=O)NCCC(c1cc(F)ccc1F)S(=O)(=O)c1ccc(Cl)cc1 (centres unmarked) [Example 222, Ethyl N-[3-[(4-chlorophenyl)sulfonyl]-3-(2,5-difluorophenyl)propyl]carbamate]
100 to 101 °C | O=C(NCCCC(c1cc(F)ccc1F)S(=O)(=O)c1ccc(Cl)cc1)OCCI (centres unmarked) [Example 224, 2-Iodoethyl N-[4-[(4-chlorophenyl)sulfonyl]-4-(2,5-difluorophenyl)butyl]carbamate]
156 to 159 °C | O=C1OCCN1CCCC(c1cc(F)ccc1F)S(=O)(=O)c1ccc(Cl)cc1 (centres unmarked) [Example 225, 3-[4-[(4-Chlorophenyl)sulfonyl]-4-(2,5-difluorophenyl)butyl]-2-oxazolidinone]
119 to 120 °C | CC(C)(C)OC(=O)NCCCC(c1cc(F)ccc1F)S(=O)(=O)c1ccc(Cl)cc1 (centres unmarked) [Example 226, t-Butyl N-[4-[(4-chlorophenyl)sulfonyl]-4-(2,5-difluorophenyl)butyl]carbamate]
128 °C | CS(=O)(=O)NCCCC(c1cc(F)ccc1F)S(=O)(=O)c1ccc(Cl)cc1 (centres unmarked) [Example 230, N-[4-[(4-Chlorophenyl)sulfonyl]-4-(2,5-difluorophenyl)butyl]methanesulfonamide]
77 to 78 °C | O=S(=O)(c1ccc(Cl)cc1)C(CCCCF)c1cc(F)ccc1F (centres unmarked) [Example 231, 2-[1-(4-Chlorophenylsulfonyl)-5-fluoropentyl]-1,4-difluorobenzene]
147 to 148 °C | CC(C)(c1cc(F)ccc1F)S(=O)(=O)c1ccc(Cl)cc1 [Example 232, 2-[1-[(4-Chlorophenyl)sulfonyl]-1-methylethyl]-1,4-difluorobenzene]
177 to 179 °C | O=S(=O)(c1ccc(Cl)cc1)C1(c2cc(F)ccc2F)CC1 [Example 233, 2-[1-[(4-Chlorophenyl)sulfonyl]cyclopropyl]-1,4-difluorobenzene]
108 to 109 °C | O=S(=O)(c1ccc(Cl)cc1)C(c1cc(F)ccc1F)C(O)CCCCO (centres unmarked) [Example 235, 6-[(4-Chlorophenyl)sulfonyl]-6-(2,5-difluorophenyl)-1,5-hexanediol]
105 to 107 °C | O=S(=O)(c1ccc(Cl)cc1)C(c1cc(F)ccc1F)C(O)CCCCO (centres unmarked) [Example 236, 6-[(4-Chlorophenyl)sulfonyl]-6-(2,5-difluorophenyl)-1,5-hexanediol]
106 to 107 °C | CS(=O)(=O)NCCCCC(c1cc(F)ccc1F)S(=O)(=O)c1ccc(Cl)cc1 (centres unmarked) [Example 242, N-[5-[(4-Chlorophenyl)sulfonyl]-5-(2,5-difluorophenyl)pentyl]methanesulfonamide]
163 °C | CC(CCNS(C)(=O)=O)C(c1cc(F)ccc1F)S(=O)(=O)c1ccc(Cl)cc1 (centres unmarked) [Example 244, N-[4-[(4-Chlorophenyl)sulfonyl]-4-(2,5-difluorophenyl)-3-methylbutyl]methanesulfonamide]
131 to 134 °C | CS(=O)(=O)NCCC(c1cc(F)ccc1F)S(=O)(=O)c1ccc(Cl)cc1 (centres unmarked) [Example 245, N-[3-(4-Chlorophenylsulfonyl)-3-(2,5-difluorophenyl)propyl]methanesulfonamide]
60 to 63 °C | O=S(=O)(c1ccc(Cl)cc1)C(C/C=C\CO)c1cc(F)ccc1F (centres unmarked) [Example 247, (Z)-5-[(4-Chlorophenyl)sulfonyl]-5-(2,5-difluorophenyl)-2-penten-1-ol]
108 to 109 °C | O=S(=O)(c1ccc(Cl)cc1)C(C/C=C/CO)c1cc(F)ccc1F (centres unmarked) [Example 248, (E)-5-[(4-Chlorophenyl)sulfonyl]-5-(2,5-difluorophenyl)-2-penten-1-ol]
108 to 110 °C | O=S(=O)(c1ccc(Cl)cc1)C(CCSCCO)c1cc(F)ccc1F (centres unmarked) [Example 250, 2-[3-[(4-Chlorophenyl)sulfonyl]-3-(2,5-difluorophenyl)propylthio]ethanol]
188 to 190 °C | O=S(=O)(c1ccc(Cl)cc1)C1(c2cc(F)ccc2F)CCSCC1 [Example 251, 4-[(4-Chlorophenyl)sulfonyl]-4-(2,5-difluorophenyl)tetrahydrothiopyran]
173 to 182 °C | O=S(=O)(c1ccc(Cl)cc1)C1(c2cc(F)ccc2F)CC[S+]([O-])CC1 (centres unmarked) [Example 252, 4-[(4-Chlorophenyl)sulfonyl]-4-(2,5-difluorophenyl)tetrahydrothiopyran-1-on]
204 to 206 °C | O=S1(=O)CCC(c2cc(F)ccc2F)(S(=O)(=O)c2ccc(Cl)cc2)CC1 [Example 253, 4-[(4-Chlorophenyl)sulfonyl]-4-(2,5-difluorophenyl)tetrahydrothiopyran-1,1-dioxide]
124 to 132 °C | O=S(=O)(c1ccc(Cl)cc1)C(CC[S+]([O-])CCO)c1cc(F)ccc1F (centres unmarked) [Example 254, 2-[3-[(4-Chlorophenyl)sulfonyl]-3-(2,5-difluorophenyl)propylsulfinyl]ethanol]

melting point | Structure (SMILES)
111 to 113 °C | O=S(=O)(CCO)CCC(c1cc(F)ccc1F)S(=O)(=O)c1ccc(Cl)cc1 (centres unmarked) [Example 255, 2-[3-[(4-Chlorophenyl)sulfonyl]-3-(2,5-difluorophenyl)propylsulfonyl]ethanol]
101 to 106 °C | CC(C)(C)OC(=O)N1CCC(c2cc(F)ccc2F)(S(=O)(=O)c2ccc(Cl)cc2)CC1 [Example 259, t-Butyl 4-[(4-chlorophenyl)sulfonyl]-4-(2,5-difluorophenyl)-1-piperidinecarboxylate]
172 to 175 °C | CN1CCC(c2cc(F)ccc2F)(S(=O)(=O)c2ccc(Cl)cc2)CC1 [Example 261, 4-[(4-Chlorophenyl)sulfonyl]-4-(2,5-difluorophenyl)-1-methylpiperidine]
159 to 160 °C | CC(=O)N1CCC(c2cc(F)ccc2F)(S(=O)(=O)c2ccc(Cl)cc2)CC1 [Example 263, 1-[4-[(4-Chlorophenyl)sulfonyl]-4-(2,5-difluorophenyl)piperidino]-1-ethanone]
245 to 248 °C | O=C(c1ccncc1)N1CCC(c2cc(F)ccc2F)(S(=O)(=O)c2ccc(Cl)cc2)CC1 [Example 264, [4-[(4-Chlorophenyl)sulfonyl]-4-(2,5-difluorophenyl)piperidino](4-pyridyl)methanone]
119 to 124 °C | O=C(c1cccnc1)N1CCC(c2cc(F)ccc2F)(S(=O)(=O)c2ccc(Cl)cc2)CC1 [Example 265, [4-[(4-Chlorophenyl)sulfonyl]-4-(2,5-difluorophenyl)piperidino](3-pyridyl)methanone]
193 to 196 °C | O=C(c1ccccn1)N1CCC(c2cc(F)ccc2F)(S(=O)(=O)c2ccc(Cl)cc2)CC1 [Example 266, [4-[(4-Chlorophenyl)sulfonyl]-4-(2,5-difluorophenyl)piperidino](2-pyridyl)methanone]
123 to 126 °C | COC(=O)N1CCC(c2cc(F)ccc2F)(S(=O)(=O)c2ccc(Cl)cc2)CC1 [Example 267, Methyl 4-[(4-chlorophenyl)sulfonyl]-4-(2,5-difluorophenyl)-1-piperidinecarboxylate]
143 to 146 °C | CN(C)C(=O)N1CCC(c2cc(F)ccc2F)(S(=O)(=O)c2ccc(Cl)cc2)CC1 [Example 268, N,N-dimethyl-4-[(4-chlorophenyl)sulfonyl]-4-(2,5-difluorophenyl)-1-piperidinecarboxamide]
176 to 178 °C | CS(=O)(=O)N1CCC(c2cc(F)ccc2F)(S(=O)(=O)c2ccc(Cl)cc2)CC1 [Example 269, 4-[(4-Chlorophenyl)sulfonyl]-4-(2,5-difluorophenyl)-1-(methylsulfonyl)piperidine]
125 to 129 °C | CN(C)S(=O)(=O)N1CCC(c2cc(F)ccc2F)(S(=O)(=O)c2ccc(Cl)cc2)CC1 [Example 270, N,N-Dimethyl-4-[(4-chlorophenyl)sulfonyl]-4-(2,5-difluorophenyl)-1-piperidinesulfonamide]
88 to 92 °C | CN(C)CC(=O)N1CCC(c2cc(F)ccc2F)(S(=O)(=O)c2ccc(Cl)cc2)CC1 [Example 271, 1-[4-[(4-Chlorophenyl)sulfonyl]-4-(2,5-difluorophenyl)piperidino]-2-(dimethylamino)-1-ethanone]
172 to 174 °C | CCNC(=O)N1CCC(c2cc(F)ccc2F)(S(=O)(=O)c2ccc(Cl)cc2)CC1 [Example 272, N-ethyl-4-[(4-chlorophenyl)sulfonyl]-4-(2,5-difluorophenyl)-1-piperidinecarboxamide]
77 to 79 °C | O=S(=O)(c1ccc(Cl)cc1)C(CCCCCCO)c1cc(F)ccc1F (centres unmarked) [Example 274, 7-[(4-Chlorophenyl)sulfonyl]-7-(2,5-difluorophenyl)-1-heptanol]
101 to 103 °C | O=S(=O)(c1ccc(Cl)cc1)C1(c2cc(F)ccc2F)CCCCCC1 [Example 275]
107 to 108 °C | O=S(=O)(c1ccc(Cl)cc1)C(Cc1ccccc1CO)c1cc(F)ccc1F (centres unmarked) [Example 277, [2-[2-[(4-Chlorophenyl)sulfonyl]-2-(2,5-difluorophenyl)ethyl]phenyl]methanol]
209 to 210 °C (dec.) | O=S(=O)(c1ccc(Cl)cc1)C1(c2cc(F)ccc2F)Cc2ccccc2C1 [Example 278, 2-[(4-Chlorophenyl)sulfonyl]-2-(2,5-difluorophenyl)indane]
105 to 109 °C | CC1CCCC1(c1cc(F)ccc1F)S(=O)(=O)c1ccc(Cl)cc1 (centres unmarked) [Example 279, 2-[1-[(4-Chlorophenyl)sulfonyl]-2-methylcyclopentyl]-1,4-difluorobenzene]
148 to 150 °C (dec.) | O=S(=O)(c1ccc(Cl)cc1)C1(c2ccccc2CO)CCCCC1 [Example 286, [2-[1-[(4-Chlorophenyl)sulfonyl]cyclohexyl]phenyl]methanol]
193 to 196 °C | CC(C)(C)OC(=O)N1CCC(C(c2cc(F)ccc2F)S(=O)(=O)c2ccc(Cl)cc2)CC1 (centres unmarked) [Example 290, t-Butyl 4-[[(4-chlorophenyl)sulfonyl](2,5-difluorophenyl)methyl]-1-piperidinecarboxylate]
